In patent US20210038607A1, “OXADIAZOLYLTHIOPHENE DERIVATIVES USEFUL AS HISTONE DEACETYLASE INHIBITORS” (Karus Therapeutics Limited, priority 2018, published 2021):

Tests used:
[1] = target: T1, Human HDAC7 (Homo sapiens, UniProt Q8WUI4); assay: HDAC7 biochemical assay, class IIa-specific substrate; conditions: read-out: HDAC Isoform IC50 (nM) 7
T1 construct: (a.a. 518-end) with N-terminal GST tag; GST (N); host or cells: baculovirus expression system
T1 sequence (Q8WUI4 518-952 limits assumed): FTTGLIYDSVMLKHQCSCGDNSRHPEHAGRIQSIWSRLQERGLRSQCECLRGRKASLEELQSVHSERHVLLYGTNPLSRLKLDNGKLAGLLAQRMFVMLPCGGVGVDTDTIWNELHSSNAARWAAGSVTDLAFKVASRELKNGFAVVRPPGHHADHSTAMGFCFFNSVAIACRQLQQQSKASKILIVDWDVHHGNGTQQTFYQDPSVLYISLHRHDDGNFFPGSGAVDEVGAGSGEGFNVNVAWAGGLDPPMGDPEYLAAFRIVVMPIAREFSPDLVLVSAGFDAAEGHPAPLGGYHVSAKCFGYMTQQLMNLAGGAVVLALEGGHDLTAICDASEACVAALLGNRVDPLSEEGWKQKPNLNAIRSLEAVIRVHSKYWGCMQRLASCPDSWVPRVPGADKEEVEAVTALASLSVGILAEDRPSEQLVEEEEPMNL
Procedure, shortened: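 GST-tagged HDAC7 (a.a. 518-end, baculovirus-expressed) at 0.001 ng/ul with 50 μM Boc-Lys(trifluoroacetyl)-AMC substrate, 30 min at room temperature in pH 8.0 Tris buffer with BSA, 1% DMSO final. Developer then releases AMC; fluorescence read at 360/460 nm.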

[2] = target: T2, Human HDAC2 (Homo sapiens, UniProt Q92769); assay: HDAC2 biochemical assay, AMC-labeled peptide substrate; conditions: read-out: HDAC Isoform IC50 (nM) 2
T2 construct: full length with C-terminal GST-tag; GST (C); host or cells: baculovirus expression system
Procedure, shortened: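 Full-length human HDAC2 with C-terminal GST tag, baculovirus-expressed, at 0.07 ng/ul with 50 μM RHKK(Ac)AMC substrate in Tris-HCl pH8.0 buffer with BSA, 1% DMSO final. Incubated 1 hour at 30° C with compounds, then developer added; fluorescence read at 360/460 Ex/Em.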

[3] = target: T3, Human HDAC10 (Homo sapiens, UniProt Q969S8); assay: HDAC10 biochemical assay, AMC-labeled peptide substrate; conditions: read-out: HDAC Isoform IC50 (nM) 10
T3 construct: Human HDAC10 (a.a. 1-481); GST (N); His (C); host or cells: baculovirus expression system
T3 sequence (Q969S8 1-481): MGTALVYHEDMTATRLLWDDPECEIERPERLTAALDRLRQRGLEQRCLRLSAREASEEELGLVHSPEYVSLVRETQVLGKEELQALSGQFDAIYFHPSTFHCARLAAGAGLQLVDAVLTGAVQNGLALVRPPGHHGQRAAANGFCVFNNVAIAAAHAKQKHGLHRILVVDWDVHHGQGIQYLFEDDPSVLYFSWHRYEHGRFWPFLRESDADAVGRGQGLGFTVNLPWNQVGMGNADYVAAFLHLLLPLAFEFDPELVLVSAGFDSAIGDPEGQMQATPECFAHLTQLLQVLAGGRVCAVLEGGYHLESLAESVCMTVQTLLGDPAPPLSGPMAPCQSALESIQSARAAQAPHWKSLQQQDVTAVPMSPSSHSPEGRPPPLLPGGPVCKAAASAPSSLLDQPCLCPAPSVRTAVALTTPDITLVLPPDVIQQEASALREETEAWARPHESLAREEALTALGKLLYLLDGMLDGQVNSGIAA
Procedure, shortened: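 Baculovirus-expressed GST/His-tagged human HDAC10 (aa 1-481), 12 ng/ul, incubated with 50 μM RHKK(Ac)AMC in Tris pH 8.0 buffer with BSA and 1% DMSO, 2 h at 30 °C. Developer then releases AMC, read at 360/460 nm.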

[4] = target: T4, Human HDAC9 (Homo sapiens, UniProt Q9UKV0); assay: HDAC9 biochemical assay, class IIa-specific substrate; conditions: read-out: HDAC Isoform IC50 (nM) 9
T4 construct: amino acids 604-1066 with C-terminal His tag; His (C); host or cells: baculovirus expression system
Procedure, shortened: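 HDAC9 residues 604-1066 (C-terminal His tag, baculovirus-expressed) at 0.06 ng/ul with 50 μM class IIa substrate Boc-Lys(trifluoroacetyl)-AMC in Tris-HCl pH 8.0 buffer with BSA and 1% DMSO. 30 min at room temperature, then developer added; fluorescence read at 360/460 nm Ex/Em.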

[5] = target: T5, Human HDAC1 (Homo sapiens, UniProt Q13547); assay: HDAC1 biochemical assay, AMC-labeled peptide substrate; conditions: read-out: HDAC Isoform IC50 (nM) 1
T5 construct: full length with C-terminal His-tag and C-terminal FLAG-tag; His (C); FLAG (C); host or cells: baculovirus expression system
Procedure, shortened: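 Baculovirus-expressed full-length human HDAC1 with His and FLAG tags, 0.3 ng/ul, incubated 1 h at 30° C with compound and 50 μM RHKK(Ac)AMC in Tris pH 8.0 buffer with BSA and 1% DMSO. Developer then releases AMC from deacetylated substrate; fluorescence read at 360/460 nm.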

T4 sequence (Q9UKV0 604-1066 isoform Q9UKV0-5): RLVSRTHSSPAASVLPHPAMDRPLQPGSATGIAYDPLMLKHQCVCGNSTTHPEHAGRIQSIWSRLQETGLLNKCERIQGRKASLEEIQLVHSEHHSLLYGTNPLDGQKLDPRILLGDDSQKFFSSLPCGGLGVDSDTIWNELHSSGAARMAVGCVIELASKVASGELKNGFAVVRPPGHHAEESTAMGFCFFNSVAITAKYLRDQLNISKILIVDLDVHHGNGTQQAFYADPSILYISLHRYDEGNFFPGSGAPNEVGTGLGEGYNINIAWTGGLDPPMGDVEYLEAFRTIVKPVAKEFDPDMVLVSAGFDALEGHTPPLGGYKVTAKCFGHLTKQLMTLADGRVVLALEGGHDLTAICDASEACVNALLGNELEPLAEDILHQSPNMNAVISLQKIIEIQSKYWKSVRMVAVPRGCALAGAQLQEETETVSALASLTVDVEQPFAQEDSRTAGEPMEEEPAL
T5 sequence (Q13547 whole entry, canonical isoform): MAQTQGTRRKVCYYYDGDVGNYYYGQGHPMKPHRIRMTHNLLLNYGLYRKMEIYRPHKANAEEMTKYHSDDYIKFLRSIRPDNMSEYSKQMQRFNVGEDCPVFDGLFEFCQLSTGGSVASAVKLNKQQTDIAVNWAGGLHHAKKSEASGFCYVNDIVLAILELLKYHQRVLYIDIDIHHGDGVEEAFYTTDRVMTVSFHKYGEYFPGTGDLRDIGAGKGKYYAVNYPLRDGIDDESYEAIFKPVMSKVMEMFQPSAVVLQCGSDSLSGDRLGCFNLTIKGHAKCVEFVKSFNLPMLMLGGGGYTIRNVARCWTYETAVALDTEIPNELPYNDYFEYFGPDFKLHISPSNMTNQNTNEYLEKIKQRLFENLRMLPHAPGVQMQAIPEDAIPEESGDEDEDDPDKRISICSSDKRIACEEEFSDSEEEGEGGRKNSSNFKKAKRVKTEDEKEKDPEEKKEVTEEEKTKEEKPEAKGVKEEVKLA
T2 sequence (Q92769 whole entry, canonical isoform): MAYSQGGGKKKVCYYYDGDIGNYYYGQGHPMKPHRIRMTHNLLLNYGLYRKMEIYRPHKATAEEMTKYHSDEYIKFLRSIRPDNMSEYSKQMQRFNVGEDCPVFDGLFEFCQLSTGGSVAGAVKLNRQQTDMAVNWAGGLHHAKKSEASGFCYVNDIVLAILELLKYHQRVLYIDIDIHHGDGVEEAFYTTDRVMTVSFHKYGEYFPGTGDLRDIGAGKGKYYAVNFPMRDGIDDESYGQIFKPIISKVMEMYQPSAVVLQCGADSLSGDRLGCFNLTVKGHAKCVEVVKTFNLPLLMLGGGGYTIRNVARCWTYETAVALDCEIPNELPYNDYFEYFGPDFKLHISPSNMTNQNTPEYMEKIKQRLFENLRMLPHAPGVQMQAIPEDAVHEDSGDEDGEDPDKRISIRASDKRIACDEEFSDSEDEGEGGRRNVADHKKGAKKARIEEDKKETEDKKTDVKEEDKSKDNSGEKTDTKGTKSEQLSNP

Compound	IC50 [1] [nM]	IC50 [2] [nM]	IC50 [3] [nM]	IC50 [4] [nM]	IC50 [5] [nM]
Cc1cncc(N(Cc2ccc(-c3noc(C(F)(F)F)n3)s2)c2cnccn2)n1 [Example BP, 6-Methyl-N-(pyrazin-2-yl)-N-({5-[5-(trifluoromethyl)-1,2,4-oxadiazol-3-yl]thiophen-2-yl}methyl)pyrazin-2-amine]	≤ 10000	> 10000	> 10000	≤ 10000	> 10000
O=C(c1cnnc(N(Cc2ccc(-c3noc(C(F)(F)F)n3)s2)c2cnccn2)c1)N1CCS(=O)(=O)CC1 [Example ED, 4-{6-[(Pyrazin-2-yl)({5-[5-(trifluoromethyl)-1,2,4-oxadiazol-3-yl]thiophen-2-yl}methyl)amino]pyridazine-4-carbonyl}-1λ^6-thiomorpholine-1,1-dione]	≤ 10000	> 10000	> 10000	≤ 10000	> 10000
N#Cc1cnnc(N(Cc2ccc(-c3noc(C(F)(F)F)n3)s2)c2cnccn2)c1 [Example EE, 6-[(Pyrazin-2-yl)({5-[5-(trifluoromethyl)-1,2,4-oxadiazol-3-yl]thiophen-2-yl}methyl)amino]pyridazine-4-carbonitrile]	≤ 10000	> 10000	> 10000	≤ 10000	> 10000
O=C(c1cnnc(N(Cc2ccc(-c3noc(C(F)(F)F)n3)s2)c2cnccn2)c1)N1CCCC1 [Example EA, N-(Pyrazin-2-yl)-5-(pyrrolidine-1-carbonyl)-N-({5-[5-(trifluoromethyl)-1,2,4-oxadiazol-3-yl]thiophen-2-yl}methyl)pyridazin-3-amine]	≤ 10000	> 10000	> 10000	≤ 10000	> 10000

Other lines, results leading:

IC50 [1] [nM]	IC50 [2] [nM]	IC50 [3] [nM]	IC50 [4] [nM]	IC50 [5] [nM]	Compound
≤ 500	> 10000	> 10000	≤ 10000	> 10000	O=C(c1ccc(N(Cc2ccc(-c3noc(C(F)(F)F)n3)s2)c2cnccn2)nn1)N1C[C@@H]2C[C@H]1CO2 [Example FE, 6-[(1S,4S)-2-Oxa-5-azabicyclo[2.2.1]heptane-5-carbonyl]-N-(pyrazin-2-yl)-N-({5-[5-(trifluoromethyl)-1,2,4-oxadiazol-3-yl]thiophen-2-yl}methyl)pyridazin-3-amine]
≤ 10000	> 10000	> 10000	≤ 10000	> 10000	O=C(c1cnnc(N(Cc2ccc(-c3noc(C(F)(F)F)n3)s2)c2cnccn2)c1)N1CC(F)(F)C1 [Example FT, 5-(3,3-Difluoroazetidine-1-carbonyl)-N-(pyrazin-2-yl)-N-({5-[5-(trifluoromethyl)-1,2,4-oxadiazol-3-yl]thiophen-2-yl}methyl)pyridazin-3-amine]
≤ 500	> 10000	> 10000	≤ 1000	≤ 10000	O=C(c1ccc(N(Cc2ccc(-c3noc(C(F)(F)F)n3)s2)c2cnccn2)nn1)N1CCC12COC2 [Example FH, 6-{6-Oxa-1-azaspiro[3.3]heptane-1-carbonyl}-N-(pyrazin-2-yl)-N-({5-[5-(trifluoromethyl)-1,2,4-oxadiazol-3-yl]thiophen-2-yl}methyl)pyridazin-3-amine]
≤ 500	> 10000	> 10000	≤ 10000	≤ 10000	CNC(=O)c1ccc(N(Cc2ccc(-c3noc(C(F)(F)F)n3)s2)c2cnccn2)nn1 [Example FC, N-Methyl-6-[(pyrazin-2-yl)({5-[5-(trifluoromethyl)-1,2,4-oxadiazol-3-yl]thiophen-2-yl}methyl)amino]pyridazine-3-carboxamide]
≤ 10000	> 10000	> 10000	≤ 10000	> 10000	FC(F)(F)c1nc(-c2ccc(CN(c3cnccn3)c3cc(N4CCOCC4)cnn3)s2)no1 [Example FP, 5-(Morpholin-4-yl)-N-(pyrazin-2-yl)-N-({5-[5-(trifluoromethyl)-1,2,4-oxadiazol-3-yl]thiophen-2-yl}methyl)pyridazin-3-amine]
